# Test results taken from patent US12661359B2 (Madrigal Pharmaceuticals, Inc., priority 2021, dated 2026).
# Columns and labels:
# [1] = tested on: patients with heterozygous familial hypercholesterolemia (HeFH); test: Phase 2 trial MGL-3196-06 (NCT03038022) in HeFH patients; assay type: in vivo, human; settings: MGL-3196 100 mg once daily, 12 weeks
# Method: A Phase 2 clinical trial was conducted in 116 patients with proven heterozygous familial hypercholesterolemia (HeFH). The primary endpoint was reduction in LDL-C compared with placebo and secondary endpoints included effects on additional lipids and lipoproteins.
# MGL-3196-06 (NCT03038022) was a 12-week multicenter, randomized, double blind, placebo-controlled trial in HeFH patients not at LDL-C target on maximally tolerated statins. Patients received MGL-3196 100 mg or placebo once daily for 12 weeks (in a 2:1 ratio) in addition to their LDL-C lowering regimen.
# [2] = cited from earlier work
# BCRP = target: T1, BCRP (Homo sapiens, UniProt Q9UNQ0); test: BCRP inhibition and DDI R-value assessment; assay type: in vitro ADME
# T1 sequence (Q9UNQ0 1-655): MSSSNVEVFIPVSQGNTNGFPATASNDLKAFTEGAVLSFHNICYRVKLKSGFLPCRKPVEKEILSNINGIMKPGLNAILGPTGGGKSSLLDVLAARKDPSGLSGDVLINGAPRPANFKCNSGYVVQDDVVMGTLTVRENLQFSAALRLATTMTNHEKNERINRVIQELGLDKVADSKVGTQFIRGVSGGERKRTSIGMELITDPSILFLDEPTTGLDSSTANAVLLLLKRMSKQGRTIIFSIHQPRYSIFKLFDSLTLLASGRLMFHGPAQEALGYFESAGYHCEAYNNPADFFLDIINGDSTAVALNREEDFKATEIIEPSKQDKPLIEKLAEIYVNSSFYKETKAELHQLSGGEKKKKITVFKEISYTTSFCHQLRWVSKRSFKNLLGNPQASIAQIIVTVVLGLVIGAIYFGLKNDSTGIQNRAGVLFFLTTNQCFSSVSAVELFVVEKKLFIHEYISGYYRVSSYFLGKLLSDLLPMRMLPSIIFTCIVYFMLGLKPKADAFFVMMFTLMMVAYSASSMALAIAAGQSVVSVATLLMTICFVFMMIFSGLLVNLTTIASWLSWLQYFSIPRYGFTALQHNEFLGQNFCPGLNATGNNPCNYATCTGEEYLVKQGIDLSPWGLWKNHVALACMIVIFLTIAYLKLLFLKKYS
# Excerpt: (§1) Based on the predicted gut-wall BCRP interaction (R=33.5), there is a possible contribution of gut BCRP inhibition to drug interactions.
# [3] = human, in vivo
# patients with NASH = settings: cited from earlier work
# P-gp = P-gp (Homo sapiens, UniProt P08183); test: P-gp inhibition; assay type: in vitro ADME
# Chain of P-gp (P08183 whole entry): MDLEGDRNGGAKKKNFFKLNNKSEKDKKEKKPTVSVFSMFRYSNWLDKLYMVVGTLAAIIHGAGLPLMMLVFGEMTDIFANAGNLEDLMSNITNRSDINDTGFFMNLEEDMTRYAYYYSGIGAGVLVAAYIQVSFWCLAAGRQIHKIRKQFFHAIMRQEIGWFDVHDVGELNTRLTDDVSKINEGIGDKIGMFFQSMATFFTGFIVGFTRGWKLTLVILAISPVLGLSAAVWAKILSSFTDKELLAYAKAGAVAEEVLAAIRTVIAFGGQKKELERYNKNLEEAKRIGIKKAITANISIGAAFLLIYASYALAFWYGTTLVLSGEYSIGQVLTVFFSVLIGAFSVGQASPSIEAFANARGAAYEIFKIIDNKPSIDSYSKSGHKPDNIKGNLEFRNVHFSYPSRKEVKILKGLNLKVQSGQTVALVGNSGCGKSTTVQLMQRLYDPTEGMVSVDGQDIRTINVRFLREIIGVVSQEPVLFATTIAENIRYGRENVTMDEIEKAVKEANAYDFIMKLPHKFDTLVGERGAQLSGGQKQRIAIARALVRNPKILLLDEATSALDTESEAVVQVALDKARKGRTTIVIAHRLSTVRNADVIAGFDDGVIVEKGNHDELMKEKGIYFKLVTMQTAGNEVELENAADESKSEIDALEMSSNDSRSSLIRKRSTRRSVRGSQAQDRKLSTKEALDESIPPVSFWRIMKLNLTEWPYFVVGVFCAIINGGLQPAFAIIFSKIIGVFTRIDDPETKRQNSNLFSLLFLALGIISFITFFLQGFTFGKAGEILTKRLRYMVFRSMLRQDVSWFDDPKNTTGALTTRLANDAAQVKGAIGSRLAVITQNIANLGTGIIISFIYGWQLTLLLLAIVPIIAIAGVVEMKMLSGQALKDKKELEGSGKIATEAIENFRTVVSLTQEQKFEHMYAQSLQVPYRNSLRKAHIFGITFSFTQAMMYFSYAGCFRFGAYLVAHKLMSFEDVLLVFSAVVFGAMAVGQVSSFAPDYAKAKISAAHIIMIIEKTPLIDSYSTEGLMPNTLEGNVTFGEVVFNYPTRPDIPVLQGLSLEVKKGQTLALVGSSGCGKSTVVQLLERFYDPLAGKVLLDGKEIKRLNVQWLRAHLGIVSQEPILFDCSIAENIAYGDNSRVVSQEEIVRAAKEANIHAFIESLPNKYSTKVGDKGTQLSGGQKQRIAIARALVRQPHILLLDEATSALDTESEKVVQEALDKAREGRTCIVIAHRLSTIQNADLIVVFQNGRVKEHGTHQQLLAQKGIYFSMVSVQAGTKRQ
# Excerpt: as §1
# human OSTαβ = target: T2, human OSTαβ (Homo sapiens, UniProt Q86UW1+Q86UW2); test: OSTαβ-mediated transport in transfected MDCK-II cells versus control cells
# T2 sequence (Q86UW1 1-340): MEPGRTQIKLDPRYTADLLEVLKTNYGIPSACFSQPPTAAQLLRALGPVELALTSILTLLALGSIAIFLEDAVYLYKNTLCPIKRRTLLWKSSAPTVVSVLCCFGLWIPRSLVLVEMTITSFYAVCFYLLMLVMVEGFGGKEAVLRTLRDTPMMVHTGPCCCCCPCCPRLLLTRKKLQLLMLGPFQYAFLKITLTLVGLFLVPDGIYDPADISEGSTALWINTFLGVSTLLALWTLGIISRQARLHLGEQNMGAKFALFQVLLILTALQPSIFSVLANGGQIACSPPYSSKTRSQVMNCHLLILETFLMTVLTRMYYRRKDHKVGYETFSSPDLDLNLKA
# T2 sequence (Q86UW2 1-128): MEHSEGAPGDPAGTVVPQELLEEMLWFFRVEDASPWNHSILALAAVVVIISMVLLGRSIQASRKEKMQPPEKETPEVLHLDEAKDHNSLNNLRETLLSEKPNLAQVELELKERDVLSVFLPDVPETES
# Method: Transfected cells and control cells are both exposed to the compound, and the concentration of the compound in the transfected cells and the control cells are then measured. An uptake ratio can then be calculated to quantify the difference of the concentration, indicating whether OSTαβ mediates the transport of the compound.
# MGL-3196 was tested as a potential substrate for human OSTαβ-mediated transport.
# clinical = settings: human, in vivo; for AUC(0-inf): AUCinf; for AUC(0-t): AUClast
structure (smiles),measurement,setting,value
"CC(C)c1cc(Oc2c(Cl)cc(-n3nc(C#N)c(=O)[nH]c3=O)cc2Cl)n[nH]c1=O [MGL-3196, 2-(3,5-dichloro-4-((5-isopropyl-6-oxo-1,6-dihydropyridazin-3-yl)oxy)phenyl)-3,5-dioxo-2,3,4,5-tetrahydro-1,2,4-triazine-6-carbonitrile]",LDL-C and other atherogenic lipids lowering in patients with HeFH,[1]; versus placebo,statistically significantly lowers
same,Apolipoprotein B (ApoB) lowering,"[1]; versus placebo, p<0.0001",−18-29%
same,Apolipoprotein CIII (Apo CIII) lowering,"[1]; versus placebo, p<0.0001",−22%
same,Lipoprotein (a) (Lp(a)) lowering,"[1]; versus placebo, p<0.0001",−26-33%
same,Triglyceride (TG) lowering,"[1]; versus placebo, p<0.0001",−25-31%
same,LDL-C lowering compared to placebo,[1]; prespecified group of patients intolerant of high intensity statin doses,28.5%
same,Effect on elevated liver enzymes,[2]; NASH patients,reduces elevated liver enzymes
same,Safety profile,[2]; in vivo,clean safety profile
same,"Suppression of the central thyroid axis, THR-α effects on heart rate or bone",[2]; in vivo,neither suppression of the central thyroid axis nor THR-α effects on heart rate or bone
same,Inhibition of BCRP (in words),BCRP,moderate inhibitor
same,DDI R-value,"BCRP; Biliary/renal/BBB, [Ifree]/IC50 ≥ 0.02",0.004
same,DDI R-value,"BCRP; Intestine, [I2]/IC50 ≥ 10, predicted gut-wall BCRP interaction",33.5
same,Safety issues such as liver enzyme or creatine kinase (CK) elevations,[3],no safety issues were observed
same,Reducing hepatic fat compared to placebo,patients with NASH; after 12 weeks and 36 weeks of treatment,effective
same,Improving markers of liver injury and fibrosis compared to placebo,patients with NASH,effective
same,"Reducing atherogenic lipids and lipoproteins (LDL cholesterol, apolipoprotein B, triglycerides, lipoprotein(a), apolipoprotein CIII) compared to placebo",patients with NASH,effective
same,Inhibition of P-gp (in words),P-gp,not an inhibitor
same,Substrate for human OSTαβ (conclusion in words),human OSTαβ; MDCK,may be a substrate
same,Accumulation in control cells,"human OSTαβ; dog, MDCK, 1 μM",1.91 ± 0.220 pmol/min/cm^2
same,Accumulation in control cells,"human OSTαβ; dog, MDCK, 10 μM",11.3 ± 0.500 pmol/min/cm^2
same,Accumulation in control cells,"human OSTαβ; dog, MDCK, 100 μM",49.3 ± 6.28 pmol/min/cm^2
same,Accumulation in transporter cells,"human OSTαβ; human, MDCK, 1 μM",2.58 ± 0.103 pmol/min/cm^2
same,Net accumulation,"human OSTαβ; human, MDCK, 1 μM",0.670 ± 0.103 pmol/min/cm^2
same,Accumulation in transporter cells,"human OSTαβ; human, MDCK, 10 μM",21.9 ± 0.810 pmol/min/cm^2
same,Net accumulation,"human OSTαβ; human, MDCK, 10 μM",10.6 ± 0.810 pmol/min/cm^2
same,Accumulation in transporter cells,"human OSTαβ; human, MDCK, 100 μM",137 ± 12.8 pmol/min/cm^2
same,Net accumulation,"human OSTαβ; human, MDCK, 100 μM",88.1 ± 12.8 pmol/min/cm^2
"CC(C)c1nc(N(C)S(C)(=O)=O)nc(-c2ccc(F)cc2)c1/C=C/[C@@H](O)C[C@@H](O)CC(=O)O [rosuvastatin, (E)-7-[4-(4-fluorophenyl)-6-isopropyl-2-[methyl(methylsulfonyl)amino]pyrimidin-5-yl](3R,5S)-3,5-dihydroxyhept-6-enoic acid, reference compound]",AUC(0-inf),"clinical; 10 mg, mean",51.7 ng·h/mL
same,AUC(0-t),"clinical; 10 mg, mean",44.5 ng·h/mL
same,Tmax,"clinical; 10 mg, Tmax, mean",4.56 h
same,AUC(0-inf),clinical; geometric mean,46.6 ng·h/mL
same,AUC(0-t),clinical; geometric mean,38 ng·h/mL
same,"Cmax, geometric mean",[3],3.11 ng/mL
same,"% AUCexts, mean",[3]; 10 mg,10.6%
same,"Cmax, mean",[3]; 10 mg,3.62 ng/mL
same,"T1/2, mean",[3]; 10 mg,18.2 h
same,Accumulation in control cells,"human OSTαβ; dog, MDCK, 1 μM",0.0557 ± 0.00359 pmol/min/cm^2
same,Accumulation in control cells,"human OSTαβ; dog, MDCK, 10 μM",0.297 ± 0.0377 pmol/min/cm^2
same,Accumulation in control cells,"human OSTαβ; human, MDCK, 0.1 μM",0.00664 ± 0.00215 pmol/min/cm^2
same,Accumulation in transporter cells,"human OSTαβ; human, MDCK, 0.1 μM",0.00894 ± 0.000845 pmol/min/cm^2
same,Net accumulation,"human OSTαβ; human, MDCK, 0.1 μM",0.0023 ± 0.000845 pmol/min/cm^2
same,Accumulation in transporter cells,"human OSTαβ; human, MDCK, 1 μM",0.0575 ± 0.00167 pmol/min/cm^2
same,Net accumulation,"human OSTαβ; human, MDCK, 1 μM",0.00176 ± 0.00167 pmol/min/cm^2
same,Accumulation in transporter cells,"human OSTαβ; human, MDCK, 10 μM",0.459 ± 0.0599 pmol/min/cm^2
same,Net accumulation,"human OSTαβ; human, MDCK, 10 μM",0.162 ± 0.0599 pmol/min/cm^2
"C[C@H](CCC(=O)NCCS(=O)(=O)O)[C@H]1CC[C@H]2[C@@H]3[C@H](O)C[C@@H]4C[C@H](O)CC[C@]4(C)[C@H]3C[C@H](O)[C@]12C [taurocholic acid, reference compound]",Net accumulation,human OSTαβ; 1 μM substrate,0.0809 ± 0.0105 pmol/min/cm^2
same,Accumulation in transporter cells,"human OSTαβ; 1 μM substrate, OSTαβ MDCK-II cells",0.109 ± 0.0105 pmol/min/cm^2
